What was measured:
Test in all cases: relative viability (nuclei count vs DMSO), 5 days (fraction); higher = more cells survive
[1] = compound: CCN1C(=O)C2=CC(=C(N=C2N(C1=O)C3CC3)N)C(=O)N + CC(=O)Nc1cccc(-n2c(=O)n(C3CC3)c(=O)c3c(Nc4ccc(I)cc4F)n(C)c(=O)c(C)c32)c1 [Trametinib] (partner 0.02 µM)
Summary of the method: (§1)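 Nuclei were stained with Hoechst during a one-step fixation (final 0.05% Triton X-100, 1% formaldehyde, 1 ug/ml Hoechst) carried out 5 days after dosing, then counted on 4× images. The cells, lung cancer lines in 1536-well plates, had been dosed by pin tool the day after seeding with one drug alone or a fixed anchor-drug dose plus five library-drug doses (not always all listed) in √10 steps. Relative viability is the nuclei count in treated wells divided by that in vehicle wells, and each value is the median of duplicate plates.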

[2] = compound: CCN1C(=O)C2=CC(=C(N=C2N(C1=O)C3CC3)N)C(=O)N + CS(=O)(=O)N1CCN(Cc2cc3nc(-c4cccc5[nH]ncc45)nc(N4CCOCC4)c3s2)CC1 [Pictilisib] (partner 1 µM)
Summary of the method: as §1

[3] = compound: CCN1C(=O)C2=CC(=C(N=C2N(C1=O)C3CC3)N)C(=O)N + C[C@@H](Oc1cc(-c2cnn(C3CCNCC3)c2)cnc1N)c1c(Cl)ccc(F)c1Cl [Crizotinib] (partner 1 µM)
Summary of the method: as §1

[4] = compound: CCN1C(=O)C2=CC(=C(N=C2N(C1=O)C3CC3)N)C(=O)N + NC(=O)Nc1cc(-c2cccc(F)c2)sc1C(=O)N[C@H]1CCCNC1 [AZD7762] (partner 0.2 µM)
Summary of the method: as §1

[5] = compound: CCN1C(=O)C2=CC(=C(N=C2N(C1=O)C3CC3)N)C(=O)N + O=C(c1cc(Cc2n[nH]c(=O)c3ccccc23)ccc1F)N1CCN(C(=O)C2CC2)CC1 [Olaparib] (partner 8 µM)
Summary of the method: as §1

Cell Line	relative viability ([1]; first compound 0.253 µM)	relative viability ([1]; first compound 0.8 µM)	relative viability ([1]; first compound 2.53 µM)	relative viability ([1]; first compound 8 µM)	relative viability ([2]; first compound 0.253 µM)	relative viability ([2]; first compound 8 µM)	relative viability ([3]; first compound 0.253 µM)	relative viability ([3]; first compound 8 µM)	relative viability ([4]; first compound 0.253 µM)	relative viability ([4]; first compound 0.8 µM)	relative viability ([4]; first compound 2.53 µM)	relative viability ([4]; first compound 8 µM)	relative viability ([5]; first compound 0.253 µM)	relative viability ([5]; first compound 0.8 µM)	relative viability ([5]; first compound 2.53 µM)	relative viability ([5]; first compound 8 µM)	relative viability ([2]; first compound 0.8 µM)	relative viability ([2]; first compound 2.53 µM)	relative viability ([3]; first compound 0.8 µM)	relative viability ([3]; first compound 2.53 µM)
LCLC-97TM1	0.194	0.217	0.203	0.182	0.203	0.223	0.366	0.316	0.242	0.155	0.267	0.175	0.422	0.397	0.318	0.419				
NCI-H2170	0.866	0.817	0.891	1.01	0.297	0.335	1.15	1.28	0.889	0.846	0.882	0.867	0.573	0.646	0.565	0.601	0.326	0.295	1.19	1.23
NCI-H1993	0.587	0.576	0.511	0.491	0.706	0.758	0.998	0.882	0.74	0.805	0.847	0.771	1.57	0.75	1.05	1.08	0.832	0.786	0.86	0.819
NCI-H460	0.226	0.13	0.13	0.13	0.372	0.341	0.943	0.986	0.609	0.572	0.57	0.586	0.432	0.364	0.433	0.445	0.339	0.461	0.969	0.684
NCI-H1975	0.343	0.335	0.335	0.336	0.276	0.306	0.948	0.949	0.758	0.622	0.83	0.7	0.747	0.82	0.734	0.785	0.293	0.306	0.94	0.97
NCI-H322M	0.522	0.457	0.469	0.586	0.452	0.488	0.814	0.943	0.611	0.548	0.551	0.599	0.855	0.785	0.753	0.822	0.504	0.486	0.872	0.887
NCI-H1651	0.784	0.835	0.778	0.819	0.552	0.595	0.892	0.868	0.463	0.434	0.442	0.399	0.223	0.177	0.202	0.186	0.581	0.461	0.884	0.858
HARA	0.513	0.914	0.56	0.545	0.403	0.486	1.1	1.16	0.661	0.304	0.296	0.315	0.897	0.904	0.915	0.841	0.36	0.379	1.04	0.946
